Where a name gives a salt, the structure may show the parent alone.
The molecules below were run against T1, Full-length USP19 (Homo sapiens, UniProt O94966) (assay: USP19 fluorescence polarisation (FP) assay, Ubiquitin-Lys-TAMRA substrate). Conditions: average of at least two duplicate experiments.
T1 construct: Full-length USP19 was purchased from Boston Biochem (E-576); purchased Boston Biochem E-576
T1 sequence (O94966 1-1318): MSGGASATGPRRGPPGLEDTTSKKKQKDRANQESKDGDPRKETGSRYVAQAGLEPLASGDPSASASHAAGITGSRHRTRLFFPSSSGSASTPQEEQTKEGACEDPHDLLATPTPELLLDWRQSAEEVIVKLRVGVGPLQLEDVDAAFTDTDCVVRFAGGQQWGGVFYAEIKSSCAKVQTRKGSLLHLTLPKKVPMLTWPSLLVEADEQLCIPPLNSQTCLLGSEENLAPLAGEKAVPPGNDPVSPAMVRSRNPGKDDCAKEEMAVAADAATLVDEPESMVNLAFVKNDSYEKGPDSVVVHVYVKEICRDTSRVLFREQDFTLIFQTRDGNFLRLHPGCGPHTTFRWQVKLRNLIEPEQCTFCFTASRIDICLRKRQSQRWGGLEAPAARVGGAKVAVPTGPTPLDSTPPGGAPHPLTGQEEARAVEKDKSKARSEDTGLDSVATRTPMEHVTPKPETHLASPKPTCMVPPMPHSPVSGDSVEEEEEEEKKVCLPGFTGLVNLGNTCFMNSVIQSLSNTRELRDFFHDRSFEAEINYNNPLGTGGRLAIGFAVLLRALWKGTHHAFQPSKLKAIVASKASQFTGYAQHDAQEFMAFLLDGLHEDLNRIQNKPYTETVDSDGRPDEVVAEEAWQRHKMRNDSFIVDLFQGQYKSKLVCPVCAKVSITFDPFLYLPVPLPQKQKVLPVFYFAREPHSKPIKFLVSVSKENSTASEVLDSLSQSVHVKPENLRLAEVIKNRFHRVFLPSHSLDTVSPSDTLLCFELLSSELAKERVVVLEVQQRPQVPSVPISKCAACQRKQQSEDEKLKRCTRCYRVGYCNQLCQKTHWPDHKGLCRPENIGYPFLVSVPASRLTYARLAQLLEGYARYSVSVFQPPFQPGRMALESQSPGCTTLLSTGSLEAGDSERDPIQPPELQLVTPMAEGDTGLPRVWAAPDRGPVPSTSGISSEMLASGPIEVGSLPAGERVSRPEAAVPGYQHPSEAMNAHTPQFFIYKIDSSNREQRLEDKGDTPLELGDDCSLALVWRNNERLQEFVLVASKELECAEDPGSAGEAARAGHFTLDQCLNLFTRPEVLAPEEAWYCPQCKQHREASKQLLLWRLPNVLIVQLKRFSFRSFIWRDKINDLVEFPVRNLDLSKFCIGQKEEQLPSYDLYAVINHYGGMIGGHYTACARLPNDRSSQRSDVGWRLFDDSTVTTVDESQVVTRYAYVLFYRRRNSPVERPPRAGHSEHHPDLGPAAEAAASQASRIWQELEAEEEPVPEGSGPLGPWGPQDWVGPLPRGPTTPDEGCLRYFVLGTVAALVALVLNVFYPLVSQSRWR
Format: biochemical
In short: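 Fluorescence polarisation (excitation 530 nm, parallel and perpendicular emission at 575 nm) was recorded every 15 min for 90 min after adding the ubiquitin-Lys-TAMRA isopeptide (500 nM as dispensed). Beforehand, the full-length enzyme (2.5 nM as dispensed) sat 30 min at RT with compound diluted from 200 μM to 2 μM in HEPES pH 7.4 buffer with 150 mM NaCl, 5 mM DTT, 0.05% BSA and 0.05% CHAPS. Values normalised to uninhibited wells gave IC50s by non-linear fitting, each the mean of two or more duplicate runs.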

| IC50 | SMILES |
| --- | --- |
| < 10 nM | CN(C)[C@@H]1CCN(C(=O)N2CC[C@@H](Cn3cnc4ccc(F)cc4c3=O)C3(CCCC3)C2)[C@H](c2cc(F)ccc2F)C1 [Example 174, 3-(((R)-7-((2S,4R)-2-(2,5-Difluorophenyl)-4-(dimethylamino)piperidine-1-carbonyl)-7-azaspiro[4.5]decan-10-yl)methyl)-6-fluoroquinazolin-4(3H)-one] |
| 100 to 1000 nM | O=C(O)[C@@H]1CCN(C(=O)N2CC[C@@H](Cn3cnc(-c4ccccc4)cc3=O)C3(CCCC3)C2)[C@H](c2ccccc2)C1 [Example 175, (2S,4R)-1-((R)-10-((6-oxo-4-phenylpyrimidin-1(6H)-yl)methyl)-7-azaspiro[4.5]decane-7-carbonyl)-2-phenylpiperidine-4-carboxylic acid] |
| 100 to 1000 nM | CNC(=O)[C@@H]1CCN(C(=O)N2CC[C@@H](Cn3cnc(-c4ccccc4)cc3=O)C3(CCCC3)C2)[C@H](c2ccccc2)C1 [Example 176, (2S,4R)-N-Methyl-1-((R)-10-((6-oxo-4-phenylpyrimidin-1(6H)-yl)methyl)-7-azaspiro[4.5]decane-7-carbonyl)-2-phenylpiperidine-4-carboxamide] |
| 1000 to 20000 nM | CN(C)C(=O)[C@@H]1CCN(C(=O)N2CC[C@@H](Cn3cnc(-c4ccccc4)cc3=O)C3(CCCC3)C2)[C@H](c2ccccc2)C1 [Example 177, (2S,4R)-N,N-Dimethyl-1-((R)-10-((6-oxo-4-phenylpyrimidin-1(6H)-yl)methyl)-7-azaspiro[4.5]decane-7-carbonyl)-2-phenylpiperidine-4-carboxamide] |
| 10 to 100 nM | CN[C@@H]1CCN(C(=O)N2CC[C@@H](CN3CC(c4ccccc4)=CC3=O)C3(CCCC3)C2)[C@H](c2cc(F)ccc2F)C1 [Example 178, 1-(((R)-7-((2S,4R)-2-(2,5-Difluorophenyl)-4-(methylamino)piperidine-1-carbonyl)-7-azaspiro[4.5]decan-10-yl)methyl)-4-phenyl-1,5-dihydro-2H-pyrrol-2-one] |
| < 10 nM | CCN[C@@H]1CCN(C(=O)N2CC[C@@H](Cn3ccc(Cl)cc3=O)C3(CCCC3)C2)[C@H](c2cc(F)ccc2F)C1 [Example 179, 4-Chloro-1-(((R)-7-((2S,4R)-2-(2,5-difluorophenyl)-4-(ethylamino)piperidine-1-carbonyl)-7-azaspiro[4.5]decan-10-yl)methyl)pyridin-2(1H)-one] |
| < 10 nM | CCN[C@@H]1CCN(C(=O)N2CC[C@@H](Cn3ccc(-c4ccccc4)cc3=O)C3(CCCC3)C2)[C@H](c2cc(F)ccc2F)C1 [Example 180, 1-(((R)-7-((2S,4R)-2-(2,5-Difluorophenyl)-4-(ethylamino)piperidine-1-carbonyl)-7-azaspiro[4.5]decan-10-yl)methyl)-4-phenylpyridin-2(1H)-one] |
| < 10 nM | N[C@@H]1CCN(C(=O)N2CC[C@@H](Cn3cnc4ccc(F)cc4c3=O)C3(CCCC3)C2)[C@H](c2cc(F)cc(F)c2)C1 [Example 181, 3-(((R)-7-((2S,4R)-4-Amino-2-(3,5-difluorophenyl)piperidine-1-carbonyl)-7-azaspiro[4.5]decan-10-yl)methyl)-6-fluoroquinazolin-4(3H)-one hydrochloride] |
| 10 to 100 nM | O=C(N1CC[C@@H](Cn2cnc(C3CC3)cc2=O)C2(CCCC2)C1)N1CC[C@@H](NCC(F)F)C[C@H]1c1cc(F)ccc1F [Example 182, 6-Cyclopropyl-3-(((R)-7-((2S,4R)-4-((2,2-difluoroethyl)amino)-2-(2,5-difluorophenyl)piperidine-1-carbonyl)-7-azaspiro[4.5]decan-10-yl)methyl)pyrimidin-4(3H)-one] |
| 10 to 100 nM | O=C(N1CC[C@@H](Cn2cnc(C(F)F)cc2=O)C2(CCCC2)C1)N1CC[C@@H](NC2CC(F)(F)C2)C[C@H]1c1cc(F)ccc1F [Example 183, 3-(((R)-7-((2S,4R)-4-((3,3-Difluorocyclobutyl)amino)-2-(2,5-difluorophenyl)piperidine-1-carbonyl)-7-azaspiro[4.5]decan-10-yl)methyl)-6-(difluoromethyl)pyrimidin-4(3H)-one] |
| 100 to 1000 nM | CN(C)[C@@H]1CCN(C(=O)N2CC[C@@H](Cn3cnc4ccc(F)cc4c3=O)C3(CCCC3)C2)[C@H](c2cc(F)cc(F)c2)C1 [Example 184, 3-(((R)-7-((2S,4R)-2-(3,5-Difluorophenyl)-4-(dimethylamino)piperidine-1-carbonyl)-7-azaspiro[4.5]decan-10-yl)methyl)-6-fluoroquinazolin-4(3H)-one hydrochloride] |
| 10 to 100 nM | O=C(N1CC[C@@H](Cn2ccc(Cl)cc2=O)C2(CCCC2)C1)N1CC[C@@H](NCC(F)F)C[C@H]1c1cc(F)ccc1F [Example 185, 4-Chloro-1-(((R)-7-((2S,4R)-4-((2,2-difluoroethyl)amino)-2-(2,5-difluorophenyl)piperidine-1-carbonyl)-7-azaspiro[4.5]decan-10-yl)methyl)pyridin-2(1H)-one] |
| 10 to 100 nM | O=C(N1CC[C@@H](Cn2ccc(Cl)cc2=O)C2(CCCC2)C1)N1CC[C@@H](NC2CC(F)(F)C2)C[C@H]1c1cc(F)ccc1F [Example 186, 4-Chloro-1-(((R)-7-((2S,4R)-4-((3,3-difluorocyclobutyl)amino)-2-(2,5-difluorophenyl)piperidine-1-carbonyl)-7-azaspiro[4.5]decan-10-yl)methyl)pyridin-2(1H)-one] |
| < 10 nM | COc1ccccc1-c1cc(=O)n(C[C@]2(OC)CCN(C(=O)N3CCNC[C@H]3c3cc(F)ccc3F)CC23CCCC3)cn1 [Example 187, 3-(((S)-7-((R)-2-(2,5-Difluorophenyl)piperazine-1-carbonyl)-10-methoxy-7-azaspiro[4.5]decan-10-yl)methyl)-6-(2-methoxyphenyl)pyrimidin-4(3H)-one] |
| < 10 nM | CC(C)N[C@@H]1CCN(C(=O)N2CC[C@@H](Cn3cnc4ccc(F)cc4c3=O)C3(CCCC3)C2)[C@H](c2cc(F)ccc2F)C1 [Example 189, 3-(((R)-7-((2S,4R)-2-(2,5-Difluorophenyl)-4-(isopropylamino)piperidine-1-carbonyl)-7-azaspiro[4.5]decan-10-yl)methyl)-6-fluoroquinazolin-4(3H)-one] |
| < 10 nM | COc1ccccc1-c1cc(=O)n(C[C@]2(OC)CCN(C(=O)N3CC[C@@H](NC(C)C)C[C@H]3c3cc(F)ccc3F)CC23CCCC3)cn1 [Example 190, 3-(((S)-7-((2S,4R)-2-(2,5-Difluorophenyl)-4-(isopropylamino)piperidine-1-carbonyl)-10-methoxy-7-azaspiro[4.5]decan-10-yl)methyl)-6-(2-methoxyphenyl)pyrimidin-4(3H)-one] |
| < 10 nM | CN[C@@H]1CCN(C(=O)N2CC[C@@H](Cn3cnc4ccc(F)cc4c3=O)C3(CCCC3)C2)[C@H](c2ccc(F)cc2F)C1 [Example 191, 3-(((R)-7-((2S,4R)-2-(2,4-Difluorophenyl)-4-(methylamino)piperidine-1-carbonyl)-7-azaspiro[4.5]decan-10-yl)methyl)-6-fluoroquinazolin-4(3H)-one] |
| < 10 nM | CC(C)N[C@@H]1CCN(C(=O)N2CC[C@@H](Cn3cnc(-c4ccccc4)cc3=O)C3(CCCC3)C2)[C@H](c2cc(F)cc(F)c2)C1 [Example 192, 3-(((R)-7-((2S,4R)-2-(3,5-Difluorophenyl)-4-(isopropylamino)piperidine-1-carbonyl)-7-azaspiro[4.5]decan-10-yl)methyl)-6-phenylpyrimidin-4(3H)-one] |
| 10 to 100 nM | Cc1cccnc1CN[C@@H]1CCN(C(=O)N2CC[C@@H](Cn3cnc(-c4ccccc4)cc3=O)C3(CCCC3)C2)[C@H](c2ccccc2)C1 [Example 193, 3-(((R)-7-((2S,4R)-4-(((3-Methylpyridin-2-yl)methyl)amino)-2-phenylpiperidine-1-carbonyl)-7-azaspiro[4.5]decan-10-yl)methyl)-6-phenylpyrimidin-4(3H)-one] |
